The target of test [1] is T1, Bifunctional epoxide hydrolase 2 (Homo sapiens) (UniProt P34913).
T1 sequence (whole entry): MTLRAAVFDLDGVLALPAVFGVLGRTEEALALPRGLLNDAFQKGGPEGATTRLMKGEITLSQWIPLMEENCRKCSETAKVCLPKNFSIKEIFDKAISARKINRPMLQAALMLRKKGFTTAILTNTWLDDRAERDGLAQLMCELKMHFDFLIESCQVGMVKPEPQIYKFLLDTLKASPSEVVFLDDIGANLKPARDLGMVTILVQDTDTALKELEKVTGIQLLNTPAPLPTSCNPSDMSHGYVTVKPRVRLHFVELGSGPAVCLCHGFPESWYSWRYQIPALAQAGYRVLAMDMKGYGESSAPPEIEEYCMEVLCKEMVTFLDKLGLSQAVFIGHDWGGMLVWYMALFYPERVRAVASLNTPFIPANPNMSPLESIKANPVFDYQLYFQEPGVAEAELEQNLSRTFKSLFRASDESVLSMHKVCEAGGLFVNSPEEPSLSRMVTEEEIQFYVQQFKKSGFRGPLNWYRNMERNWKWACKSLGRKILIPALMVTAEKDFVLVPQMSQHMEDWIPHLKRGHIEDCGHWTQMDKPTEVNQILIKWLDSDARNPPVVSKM
The settings on record: at 50 µM.
Description: Inhibition of sEH (unknown origin) assessed as 6-methoxy-2-naphthaldehyde formation at 50 uM by fluorometry assay using 40 uM cyano-(6-methoxy-naphthalen-2-yl)-methyl ester as substrate

Test [2] addresses T2, Bifunctional epoxide hydrolase 2 (Homo sapiens, UniProt P34913).
T2 sequence (P34913 whole entry): T1 sequence (whole entry)
In words: Inhibition of sEH (unknown origin) assessed as 6-methoxy-2-naphthaldehyde formation by fluorometry assay using 40 uM cyano-(6-methoxy-naphthalen-2-yl)-methyl ester as substrate.

The target of test [3] is T2, Bifunctional epoxide hydrolase 2. Nature of the test: Reversible-uncompetitive inhibition of sEH (unknown origin) by Lineweaver-Burk plot.

The structures appear in SMILES notation.

Take `COc1cc2c(c(OC)c1OC)C(=O)c1c(cc(C)c(O)c1OC)C2=O` [CHRYSOOBTUSIN]: the inhibition in test [1] turned out to be 59.8%. In addition, the IC50 in test [2] came out at 26.3 µM.

`COc1c(O[C@@H]2O[C@H](CO)[C@@H](O)[C@H](O)[C@H]2O)cc2c(c1O)C(=O)c1c(cc(C)c(O)c1OC)C2=O` registered an inhibition in test [1] of 57.7%. The concentration for half-maximal inhibition (IC50) in test [2] is 33 µM.

With `Cc1cc(O)c2c(c1)C(=O)c1cc(O)cc(O)c1C2=O` [EMODIN], the inhibition in test [1] turned out to be 56.4%. Also, the IC50 in test [2] was determined as 36.4 µM.

As for `COc1cc(O[C@@H]2O[C@H](CO[C@@H]3O[C@H](CO)[C@@H](O)[C@H](O)[C@H]3O)[C@@H](O)[C@H](O)[C@H]2O)c2c(O)c3c(=O)cc(C)oc3cc2c1`, the inhibition in test [1] stood at 50.9%. Besides, the IC50 in test [2] came out at 37.5 µM.

On to `COc1ccc2c(c1O)C(=O)c1c(cc(C)c(O)c1OC)C2=O`, for which the inhibition in test [1] amounted to 54.2%. In addition, the IC50 in test [2] is 35.7 µM.

In the case of `COc1c(O)cc2c(c1O)C(=O)c1c(cc(C)c(O)c1OC)C2=O`, in test [1], the inhibition was found to be 0%.

In turn, `Cc1cc(O)c2c(c1)C(=O)c1cccc(O)c1C2=O` came in with an inhibition in test [1] of 38.1%.

In test [1], `COc1c(O[C@@H]2O[C@H](CO)[C@@H](O)[C@H](O)[C@H]2O)c(C)cc2c1C(=O)c1c(O)cccc1C2=O` yielded an inhibition of 50.6%. In addition, the 50% inhibitory concentration (IC50) in test [2] was 24.3 µM.

In test [1], `COc1cc(O[C@@H]2O[C@H](CO)[C@@H](O)[C@H](O)[C@H]2O)c2c(OC)c(C(C)=O)c(O[C@H]3OC[C@@](O)(CO)[C@@H]3O)cc2c1` had an inhibition of 91.6%. In addition, the concentration for half-maximal inhibition (IC50) in test [2] was 2.2 µM. In addition, the Ki in test [3] turned out to be 0.6 µM.

`COc1cc2c(c(O)c1OC)C(=O)c1c(cc(C)c(O)c1OC)C2=O`: the inhibition in test [1] turned out to be 55.1%. For the same compound, in test [2], the IC50 turned out to be 26.4 µM.

`COc1cc(O)c2c(c1)C(=O)c1cc(C)cc(O)c1C2=O` had an inhibition in test [1] of 27.1%.

Compound `COc1c(O)c(C)cc2c1C(=O)c1c(O)cccc1C2=O` yielded an inhibition in test [1] of 2.6%.

In turn, `COc1cc(O[C@@H]2O[C@H](CO[C@@H]3O[C@H](CO)[C@@H](O)[C@H](O)[C@H]3O)[C@@H](O)[C@H](O)[C@H]2O)c2c(O)c3c(=O)oc(C)cc3cc2c1` registered an inhibition in test [1] of 67.6%. Moreover, the IC50 in test [2] is 20 µM.

In test [1], `COc1cc(O[C@@H]2O[C@H](CO)[C@@H](O)[C@H](O)[C@H]2O)c2c(O)c3c(=O)cc(C)oc3cc2c1` showed an inhibition of 38.1%.

In test [1], `COc1cc(O[C@@H]2O[C@H](CO[C@@H]3O[C@H](CO)[C@@H](O)[C@H](O)[C@H]3O)[C@@H](O)[C@H](O)[C@H]2O)c2c(c1)C(=O)c1cc(C)cc(O)c1C2=O` registered an inhibition of 51%. Also, in test [2], the IC50 stood at 40.6 µM.

In turn, `COc1cc2c(c(OC)c1OC)C(=O)c1c(cc(C)c(O[C@@H]3O[C@H](CO)[C@@H](O)[C@H](O)[C@H]3O)c1OC)C2=O` had an inhibition in test [1] of 28.6%.

The term inhibition denotes the drop in the measured response relative to a control, in per cent. In general, IC50 refers to the concentration that gives 50% inhibition. By Ki is commonly meant the equilibrium dissociation constant of an inhibitor or competing ligand from its target.

The values are drawn from ChEMBL document CHEMBL3632595, “Constituents of the seeds of Cassia tora with inhibitory activity on soluble expoxide hydrolease” (Bioorg Med Chem Lett, 2015).
